Experimental data from patent US4952564A, “Antiallergic agent” (Dainippon Ink and Chemicals, Inc., priority 1986, dated 1990).

Tests used:
[1] = system: rat peritoneal exudation cells; assay: Inhibition effect on the liberation of histamine by compound 48/80; type: cell-based; conditions: for Liberation ratio of histamine (%): control 87.4, blank 9.3
Description: 2. Inhibition effect of the medicine on the liberation of histamine by compound 48/80.
(1) Preparation of rat peritoneal exudation cells
10 ml of Locke's solution containing 0.1% of bovine serum albumin was injected into the abdominal cavity of a rat which had been killed by exsanguination. The rat was lightly massaged, then subjected to an abdominal section so that an abdominal solution was collected. The abdominal cavity was also washed with 5 ml of the same solution and the washing solution was collected and mixed with the above abdominal solution. The abdominal solution was centrifuged at 500 rpm for 5 minutes, then 5 ml of cool Locke's solution was added to the sediment. After the sediment had been washed, 3 ml of cool Locke's solution was again added thereto to form a solution of rat peritoneal exudation cells.
(2) Inhibition effect of medicine on the liberation of histamine by compound 48/80.
0.5 ml of Locke's solution and 1.0 ml of each of the solutions of isoliquiritigenin prepared to the concentration shown in Table 2 (the isoliquiritigenin was dissolved in a physiological saline solution containing 1% sodium bicarbonate, the resultant solution being diluted with Locke's solution) were added to 0.3 ml of the solution of rat peritoneal exudation cells obtained in (1) above and were incubated at 37° C. for 5 minutes. Then, 0.2 ml each of a Locke's solution of the compound 48/80 (1 mg/100 ml) was added to the solution and the mixture was incubated at 37° C. for 10 minutes. After the reaction was stopped by cooling, the obtained solution was centrifuged at 2,500 rpm for 10 minutes to be separated into 1.7 ml of supernatant and 0.3 ml of sediment. 0.1 ml of water and 0.2 ml of 100% trichloroacetic acid were added to the supernatant, and 1.5 ml of Locke's solution and the 100% trichloroacetic acid were added to the sediment which was then allowed to stand for 30 minutes at room temperature and was centrifuged at 3,000 rpm for 15 minutes. 0.35 ml of each of the supernatant and the supernatant of the sediment was taken and 1.65 ml of water and 0.4 ml of 1N sodium hydroxide were added in turn to each of the supernatants. 0.1 ml of 0.5% OPT (orthophthalaldehyde) methanol solution was added to each of the resultant solutions which were then allowed to react at room temperature for 4 minutes. After the reaction was stopped by the addition of 0.2 ml of 2M citric acid, the fluorescence of each of the reaction solutions was measured by a fluorophotometer. […]
The inhibition ratio of isoliquiritigenin for the liberation of histamine by the compound 48/80 is calculated from the following equations: [formula]

[2] = system: ileum of the guinea pig; assay: Schultz-Dale reaction (antigen-induced contraction of ileum of actively sensitized guinea pig); type: cell-based, guinea pig (Hartley)
Description: The Schultz-Dale test and the inhibition effect of the compound of the present invention on the liberation of histamines by a compound 48/80 indicate that isoliquiritigenin has an antiallergic activity.
(1) Active sensitization of guinea pig by antigenic egg-white albumin (EWA)
After 1, 2 and 3 weeks, additional sensitization was conducted by injecting an equivalent mixed emulsion of a physiological saline solution of 4 mg/ml of EWA and complete Freund's adjuvant into the muscle at a ratio of 0.1 ml/100 g and the guinea pig was subjected to the Schultz-Dale reaction one week after the final sensitization.
(2) Schultz-Dale reaction
The ileum of the guinea pig which was actively sensitized in (1) above was extirpated and immediately soaked in Tyrode's solution to form a specimen of a length of 15 mm which was suspended at a tensile force of l.5 g in a Magnus' tube (10 ml) kept at a temperature of 37° C. Contraction of the ileum by 10^-6 mole of histamine. […] Then, after preincubation for about 2 minutes, 10 μg/ml of EWA was added to the Magnus' tube and the contraction of the ileum was recorded. As a control, the contraction of the ileum was measured by an operation which was similar to that of the above, except that the physiological saline solution of isoliquiritigenin containing 0.2% sodium bicarbonate was not applied. […]

[3] = used in treatment of gastric ulcers; cited from earlier work
[4] = Side effects when administered for a long time; type: in vivo; conditions: no test described
[5] = system: ddY male mice; assay: Acute toxicity (minimum lethal dose) in mice; type: in vivo; conditions: for minimum lethal dose: five 5-week-old ddY male mice
Description: Isoliquiritigenin was orally or intra-peritoneally administered to five 5-week-old ddY male mice. Consequently, it was determined that the minimum lethal dose was not less than 3000 mg/kg (oral administration) or not less than 1000 mg/kg (intra-peritoneal administration).

Structure (SMILES): O=C(/C=C/c1ccc(O)cc1)c1ccc(O)cc1O [Isoliquiritigenin, isoliquiritigenin]
- Liberation ratio of histamine (%) ([1]; isoliquiritigenin 100 mg/ml): 71.0%
- Liberation ratio of histamine (%) ([1]; isoliquiritigenin 300 mg/ml): 32.7%
- Liberation ratio of histamine (%) ([1]; isoliquiritigenin 1000 mg/ml): 9.2%
- liberation of histamine from mast cells by compound 48/80 ([1]; result in words): inhibits histamines from liberating mast cells by the compound 48/80
- inhibition at 100 µM ([2]; Cavia porcellus, 10^-4 mole, EWA 10 μg/ml, versus control, read-out: Inhibition ratio (%)): 90.2%
- contraction of the ileum of the guinea pig by histamine and SRS-A ([2]; result in words): inhibits the contraction of the ileum of the guinea pig by histamine and SRS-A
- antiulcerous activity [3]: exhibits an antiulcerous activity
- side effects [4]: few side effects
- minimum lethal dose ([5]; intra-peritoneal administration): not less than 1000 mg/kg
- minimum lethal dose ([5]; oral administration): not less than 3000 mg/kg
- toxicity ([5]; result in words): very low toxicity
